For assay [1], the system named is PANC-1. As to the kind of experiment: Antiproliferative activity against human PANC1 cells incubated for 72 hrs by MTT assay. Type of assay: functional, cell-based. As to conditions: PANC-1, 72 h. A general note: Tetrazolium dyes change colour on reduction, which living cells bring about.
Assay [2] can be described thus: Antiproliferative activity against human MCF cells incubated for 72 hrs by MTT assay. Type of assay: functional, cell-based.
Assay [3] concerns DU-145. The experiment in a line: Antiproliferative activity against human DU145 cells incubated for 72 hrs by MTT assay. Type of assay: functional, cell-based. To be noted: DU-145, 72 h.
Assay [4] has as its system HepG2. The experiment in a line: Antiproliferative activity against human HepG2 cells incubated for 72 hrs by MTT assay. Type of assay: functional, cell-based. To be noted: HepG2, 72 h.
Assay [5] deals with PANC-1. As to the kind of experiment: Inhibition of colony formation in human PANC1 cells incubated for 14 days by crystal violet staining based assay. Type of assay: functional, cell-based.
Assay [6] deals with PANC-1. As to the kind of experiment: Induction of apoptosis in human PANC1 cells assessed as increase in cleaved caspase-3 level incubated for 24 hrs by Western blot analysis. Type of assay: functional, cell-based. For orientation: A western blot detects proteins with antibodies after separation by electrophoresis.
Assay [7] concerns PANC-1. As to the kind of experiment: Induction of apoptosis in human PANC1 cells assessed as increase in cleaved PARP level incubated for 24 hrs by Western blot analysis. Type of assay: functional, cell-based.
Assay [8] addresses T1, Dual specificity mitogen-activated protein kinase kinase; MEK1/2 (Homo sapiens) (UniProt P36507+Q02750). The experiment in a line: Inhibition of MEK1/2 in human PANC1 cells assessed as decrease in phosphorylated levels of MEK at S217/221 at 5 uM incubated for 24 hrs by Western blotting analysis. Type of assay: cell-based.
The target of assay [9] is T1, Dual specificity mitogen-activated protein kinase kinase; MEK1/2 (Homo sapiens). The experiment in a line: Inhibition of MEK1/2 in human PANC1 cells assessed as decrease in phosphorylated levels of ERK(T202/Y204) at 5 uM incubated for 24 hrs by Western blotting analysis. Type of assay: cell-based.
Assay [10] has the same target. The experiment in a line: Inhibition of MEK1/2 in human PANC1 cells assessed as decrease in phosphorylated levels of ERK(T202/Y204) in nuclear fraction at 5 uM incubated for 24 hrs by Western blotting analysis. Type of assay: cell-based.
For assay [11], the system named is A549. As to the kind of experiment: Antiproliferative activity against human A549 cells incubated for 72 hrs by MTT assay. Type of assay: functional, cell-based. To be noted: A549, 72 h.
For assay [12], the system named is HCT-116. As to the kind of experiment: Antiproliferative activity against human HCT116 cells incubated for 72 hrs by MTT assay. Type of assay: functional, cell-based. As to conditions: HCT-116, 72 h.
Assay [13] concerns the target T1, Dual specificity mitogen-activated protein kinase kinase; MEK1/2 (Homo sapiens). To be noted: 10 uM.
Description: Inhibition of MEK1/2 in human PANC1 cells assessed as decrease in phosphorylated levels of MEK at S217/221 at 10 uM incubated for 24 hrs by Western blotting analysis

Molecules are shown by their SMILES. Activity calls are given as the source filed them. No cut-off for these calls is given here.

T1 sequence (P36507 whole entry, looked up): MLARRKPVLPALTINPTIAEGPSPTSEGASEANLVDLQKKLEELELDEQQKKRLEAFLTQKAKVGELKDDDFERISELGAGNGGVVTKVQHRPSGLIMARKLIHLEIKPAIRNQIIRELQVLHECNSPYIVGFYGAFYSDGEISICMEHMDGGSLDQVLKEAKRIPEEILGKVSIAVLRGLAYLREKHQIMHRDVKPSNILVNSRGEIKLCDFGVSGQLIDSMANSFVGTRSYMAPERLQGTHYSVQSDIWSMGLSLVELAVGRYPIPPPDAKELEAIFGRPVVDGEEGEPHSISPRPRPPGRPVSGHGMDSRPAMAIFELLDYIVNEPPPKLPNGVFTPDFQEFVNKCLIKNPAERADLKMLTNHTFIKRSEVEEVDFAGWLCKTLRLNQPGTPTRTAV
T1 sequence (Q02750 whole entry, looked up): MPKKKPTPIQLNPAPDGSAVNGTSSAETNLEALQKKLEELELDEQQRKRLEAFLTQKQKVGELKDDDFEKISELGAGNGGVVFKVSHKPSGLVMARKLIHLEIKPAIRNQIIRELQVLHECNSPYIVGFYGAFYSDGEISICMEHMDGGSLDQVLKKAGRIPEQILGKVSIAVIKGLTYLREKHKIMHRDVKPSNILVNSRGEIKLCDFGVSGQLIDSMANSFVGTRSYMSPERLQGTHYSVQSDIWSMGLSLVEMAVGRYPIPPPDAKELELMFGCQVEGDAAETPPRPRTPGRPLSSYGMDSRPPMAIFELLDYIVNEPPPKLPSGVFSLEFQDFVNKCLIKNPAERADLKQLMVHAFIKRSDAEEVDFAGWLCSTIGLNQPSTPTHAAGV

As usually defined, the IC50 is the concentration that inhibits the measured activity by half. For `CC(C)=CCc1c(O)cc(O)c2c1C(=O)c1c(O)c(Cl)c(C)c(Cl)c1OC2` [PESTALACHLORIDE B], in [1], the IC50 was more than 50 µM.
On the same count and under the same terms, as for `COc1c(Cl)c(C)c(Cl)c(O)c1C(=O)c1c(C=O)c(O)cc(O)c1CC=C(C)C` [PESTALONE], the figure is 14 µM; as for `COc1cc(C)c(Br)c(O)c1C(=O)c1c(C=O)c(O)cc(O)c1CC=C(C)C`, 26 µM.
Turning to `O=c1[nH]cc(F)c(=O)[nH]1` [FLUOROURACIL], the IC50 in assay [1] came to 15 µM; in assay [2] it was 11 µM; in assay [3] it was 2.5 µM; in [4] it was 2.5 µM.
Turning to `CC(C)=CCc1c(O)cc(O)c(C=O)c1C(=O)c1c(O)cc(C)c(Cl)c1O`, the IC50 was found to be 7.2 µM in [1]; 7.8 µM in assay [11]; 5.5 µM in assay [12]; 7.5 µM in assay [2]; 14 µM in assay [3]; 23 µM in [4]. Moreover, in assay [5], the inhibition result is “Dose-dependent effect”. Also, the Activity entry in assay [6] and in [7] was “Dose-dependent effect” throughout. Moreover, the inhibition entry in assay [8], in [9] and in assay [10] was “Active” in each case.
With `COc1cc(C)c(Cl)c(O)c1C(=O)c1c(C=O)c(O)cc(O)c1CC=C(C)C`, the 50% inhibitory concentration (IC50) in assay [1] is 14 µM; in assay [11], 14 µM; in assay [12], 10 µM; in assay [2], 11 µM; in assay [3], 21 µM; in assay [4], 37 µM.
Take `COc1cccc(-c2cc(=O)c3ccccc3o2)c1N`: the inhibition result in [13] was “Active”.
`CC(C)=CCc1c(O)cc(O)c(C=O)c1C(=O)c1c(O)cc(C)c(Br)c1O` had an IC50 in assay [1] of 7.6 µM. For the same compound, in [5], the inhibition result was “Dose-dependent effect”. Moreover, the Activity result in assay [6] and in [7] was “Dose-dependent effect” throughout. Moreover, the inhibition result in [8], in assay [9] and in assay [10] was “Active” in each case.

The values above are taken from ChEMBL document CHEMBL4321870, “Benzophenone Compounds, from a Marine-Derived Strain of the Fungus Pestalotiopsis neglecta, Inhibit Proliferation of Pancreatic Cancer Cells by Targeting the MEK/ERK Pathway” (J Nat Prod, 2019).
